Experimental data: patent EP1879602B1, “USE OF CACAO POLYPHENOLS FOR CONTROLLING SKIN PIGMENTATION” (priority 2005, dated 2006)

Tested on: synthèse de la mélanine
Assay: Intracellular melanin assay by spectrometry at 475 nm on reconstituted epidermis (Skinetic®) co-cultured with melanocytes
Type: cell-based, humaine
Conditions: positive control, concentration not given
Source text: L'activité sur la pigmentation (effet dépigmentant et effet pigmentant) a été étudiée à travers • l'évaluation de l'activité de la tyrosinase • l'évaluation de la synthèse de la mélanine (étude qualitative de la mélanine intracellulaire par spectrométrie à 475 nm)
L'étude a été faite sur des épidermes reconstitués (Skinetic®). Des kératinocytes d'origine humaine sont cultivés dans un milieu défini (MCDB 153 modifié) et supplémentés. Les cellules sont cultivées pendant 10 jours à l'interface air/liquide, le milieu de culture étant changé tous les deux jours.
Les épidermes ainsi formés sont mis en co-culture avec des mélanocytes de phototypes II, IV et VI sur des filtres en polycarbonate. L'étude est réalisée entre le 11^ème et le 17^ème jour de la culture.
L'essai est conduit en triplicate après 3 jours de contact.
L'évaluation de la synthèse de la mélanine intracellulaire (étude qualitative) a été effectuée comme indiqué ci-dessus par spectrométrie à 475 nm après digestion des explants de peau humaine puis dissolution dans NaOH 1N et du diméthyl sulfoxyde pendant 30 minutes.

With `O=c1cc(CO)occ1O` [acide kojique] the “%” value (change vs negative control, 4320 min) was -42% and the “Absorbance (475 nm)” value (3 days contact, triplicate) was 0,107 ± 0,01.
